#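 Five concentrations, 48 hours, 96-well plates. GI50 is the concentration that inhibits growth by half. The concentration for full growth arrest is given as TGI.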
# Columns and labels:
# Experiment in all cases: NCI-60 cell line screen, 48 h
# OVCAR-3 ovarian = system: OVCAR-3 ovarian
# SK-MEL-5 melanoma = system: SK-MEL-5 melanoma
# SNB-75 CNS = system: SNB-75 CNS
# PC-3 prostate = system: PC-3 prostate
# MDA-MB-468 breast = system: MDA-MB-468 breast
# HT29 colon = system: HT29 colon
# HOP-92 NSCLC = system: HOP-92 NSCLC
# CCRF-CEM leukemia = system: CCRF-CEM leukemia
# MDA-MB-435 = system: MDA-MB-435
# MOLT-4 leukemia = system: MOLT-4 leukemia
# K-562 leukemia = system: K-562 leukemia
# SNB-19 CNS = system: SNB-19 CNS
# UACC-62 melanoma = system: UACC-62 melanoma
# OVCAR-4 ovarian = system: OVCAR-4 ovarian
# M14 melanoma = system: M14 melanoma
# OVCAR-5 ovarian = system: OVCAR-5 ovarian
# RXF 393 renal = system: RXF 393 renal
# UO-31 renal = system: UO-31 renal
# HL-60(TB) leukemia = system: HL-60(TB) leukemia
# BT-549 breast = system: BT-549 breast
# NCI-H23 lung = system: NCI-H23 lung
# HCC-2998 colon = system: HCC-2998 colon
# DU-145 prostate = system: DU-145 prostate
# SR leukemia = system: SR leukemia
# CAKI-1 renal = system: CAKI-1 renal
# UACC-257 melanoma = system: UACC-257 melanoma
# HOP-62 NSCLC = system: HOP-62 NSCLC
# NCI/ADR-RES ovarian = system: NCI/ADR-RES ovarian
# HS 578T breast = system: HS 578T breast
# NCI-H460 lung = system: NCI-H460 lung
# RPMI-8226 leukemia = system: RPMI-8226 leukemia
# KM12 colon = system: KM12 colon
# MALME-3M melanoma = system: MALME-3M melanoma
# A498 renal = system: A498 renal
# MCF7 breast = system: MCF7 breast
# NCI-H522 lung = system: NCI-H522 lung
# SK-MEL-2 melanoma = system: SK-MEL-2 melanoma
# SF-539 CNS = system: SF-539 CNS
# A549 NSCLC = system: A549 NSCLC
# NCI-H226 lung = system: NCI-H226 lung
# HCT-15 colon = system: HCT-15 colon
# SW-620 colon = system: SW-620 colon
# SN12C renal = system: SN12C renal
# EKVX NSCLC = system: EKVX NSCLC
# SK-MEL-28 melanoma = system: SK-MEL-28 melanoma
# IGROV1 ovarian = system: IGROV1 ovarian
# TK-10 renal = system: TK-10 renal
# MDA-MB-231 breast = system: MDA-MB-231 breast
compound,measurement,setting,value
CN1CCN(c2ccc(Nc3nc(N4CCN(S(=O)(=O)c5ccc(F)cc5)CC4)c4sccc4n3)cc2)CC1,GI50,OVCAR-3 ovarian,1.91 µM
same,TGI,OVCAR-3 ovarian,3.51 µM
same,GI50,SK-MEL-5 melanoma,1.68 µM
same,TGI,SK-MEL-5 melanoma,3.05 µM
same,GI50,SNB-75 CNS,11 µM
same,TGI,SNB-75 CNS,26.8 µM
same,GI50,PC-3 prostate,2.13 µM
same,TGI,PC-3 prostate,5.11 µM
same,GI50,MDA-MB-468 breast,1.5 µM
same,TGI,MDA-MB-468 breast,2.89 µM
same,GI50,HT29 colon,1.83 µM
same,TGI,HT29 colon,3.6 µM
same,GI50,HOP-92 NSCLC,7.3 µM
same,TGI,HOP-92 NSCLC,24.1 µM
same,GI50,CCRF-CEM leukemia,2.39 µM
same,TGI,CCRF-CEM leukemia,6.78 µM
same,GI50,MDA-MB-435,1.77 µM
same,TGI,MDA-MB-435,3.26 µM
same,GI50,MOLT-4 leukemia,2.45 µM
same,TGI,MOLT-4 leukemia,6.05 µM
same,GI50,K-562 leukemia,2.13 µM
same,TGI,K-562 leukemia,5.73 µM
same,GI50,SNB-19 CNS,2.64 µM
same,TGI,SNB-19 CNS,8.71 µM
same,GI50,UACC-62 melanoma,1.71 µM
same,TGI,UACC-62 melanoma,3.15 µM
same,GI50,OVCAR-4 ovarian,2 µM
same,TGI,OVCAR-4 ovarian,4.2 µM
same,GI50,M14 melanoma,1.84 µM
same,TGI,M14 melanoma,3.56 µM
same,GI50,OVCAR-5 ovarian,2.36 µM
same,TGI,OVCAR-5 ovarian,5.94 µM
same,GI50,RXF 393 renal,1.61 µM
same,TGI,RXF 393 renal,3.14 µM
same,GI50,UO-31 renal,13.4 µM
same,TGI,UO-31 renal,29.1 µM
same,GI50,HL-60(TB) leukemia,2.07 µM
same,TGI,HL-60(TB) leukemia,4.25 µM
same,GI50,BT-549 breast,17.8 µM
same,TGI,BT-549 breast,53.1 µM
same,GI50,NCI-H23 lung,4.35 µM
same,TGI,NCI-H23 lung,18.1 µM
same,GI50,HCC-2998 colon,1.69 µM
same,TGI,HCC-2998 colon,3.23 µM
same,GI50,DU-145 prostate,1.97 µM
same,TGI,DU-145 prostate,3.76 µM
same,GI50,SR leukemia,2.01 µM
same,TGI,SR leukemia,4.85 µM
same,GI50,CAKI-1 renal,2.98 µM
same,TGI,CAKI-1 renal,10.1 µM
same,GI50,UACC-257 melanoma,1.58 µM
same,TGI,UACC-257 melanoma,3.19 µM
same,GI50,HOP-62 NSCLC,11.5 µM
same,TGI,HOP-62 NSCLC,> 100 µM
same,GI50,NCI/ADR-RES ovarian,2 µM
same,TGI,NCI/ADR-RES ovarian,4.42 µM
same,GI50,HS 578T breast,17.8 µM
same,TGI,HS 578T breast,55.4 µM
same,GI50,NCI-H460 lung,1.86 µM
same,TGI,NCI-H460 lung,3.45 µM
same,GI50,RPMI-8226 leukemia,2.28 µM
same,TGI,RPMI-8226 leukemia,4.98 µM
same,GI50,KM12 colon,2.02 µM
same,TGI,KM12 colon,3.97 µM
same,GI50,MALME-3M melanoma,1.72 µM
same,TGI,MALME-3M melanoma,3.15 µM
same,GI50,A498 renal,19.2 µM
same,TGI,A498 renal,34.5 µM
same,GI50,MCF7 breast,1.66 µM
same,TGI,MCF7 breast,3.18 µM
same,GI50,NCI-H522 lung,1.64 µM
same,TGI,NCI-H522 lung,3.12 µM
same,GI50,SK-MEL-2 melanoma,19.7 µM
same,TGI,SK-MEL-2 melanoma,39.2 µM
same,GI50,SF-539 CNS,1.75 µM
same,TGI,SF-539 CNS,3.18 µM
same,GI50,A549 NSCLC,1.87 µM
same,TGI,A549 NSCLC,4.44 µM
same,GI50,NCI-H226 lung,18.7 µM
same,TGI,NCI-H226 lung,48.2 µM
same,GI50,HCT-15 colon,1.67 µM
same,TGI,HCT-15 colon,3.15 µM
same,GI50,SW-620 colon,1.8 µM
same,TGI,SW-620 colon,3.33 µM
same,GI50,SN12C renal,1.73 µM
same,TGI,SN12C renal,3.25 µM
same,GI50,EKVX NSCLC,3.95 µM
same,TGI,EKVX NSCLC,22.9 µM
same,GI50,SK-MEL-28 melanoma,1.68 µM
same,TGI,SK-MEL-28 melanoma,3.15 µM
same,GI50,IGROV1 ovarian,2.19 µM
same,TGI,IGROV1 ovarian,4.74 µM
same,GI50,TK-10 renal,2.61 µM
same,TGI,TK-10 renal,7.37 µM
same,GI50,MDA-MB-231 breast,1.9 µM
same,TGI,MDA-MB-231 breast,3.4 µM

# — PubChem BioAssay (NCI)
